Results on 17 molecules are retold here after US7820865B2, “Photolatent systems” (Ciba Corporation, priority 2005, dated 2010).

Molecule `CCOCC(=O)c1cc(C(C)C)c(O)c(C(C)C)c1` displayed a melting point of 97 to 98 °C. The molecule `COc1cc(C=O)ccc1OCC(=O)c1cc(C(C)(C)C)c(O)c(C(C)(C)C)c1` [Compound 101, 4-[2-(3,5-di-tert-butyl-4-hydroxyphenyl)-2-oxo-ethoxy]-3-methoxy-benzaldehyde] displayed a melting point of 99 to 100 °C. On to `COc1cc(C=O)ccc1OCC(=O)c1cc(C2CCCCC2)c(O)c(C2CCCCC2)c1` [Compound 103, 4-[2-(3,5-di-cyclohexyl-4-hydroxyphenyl)-2-oxo-ethoxy]-3-methoxy-benzaldehyde], for which the melting point fell in the range of 163 to 164 °C. As for `CC(C)(C)c1cc(C(=O)COc2ccc(Cl)cc2Oc2ccc(Cl)cc2Cl)cc(C(C)(C)C)c1O` [Compound 104, 2-[4-chloro-2-(2,4-dichloro-phenoxy)-phenoxy]-1-(3,5-di-tert-butyl-4-hydroxyphenyl)-ethanone], the figure is 111 to 114 °C; as for `Cc1ccc(OCC(=O)c2cc(C(C)C)c(O)c(C(C)C)c2)cc1` [Compound 105, 1-(4-hydroxy-3,5-di-isopropylphenyl)-2-p-tolyloxy-ethanone], 124 to 125 °C. For `CCC(C)(C)c1cc(C(=O)COc2ccc(C=O)cc2OC)cc(C(C)(C)CC)c1O` [Compound 107, 4-{2-[3,5-bis(1,1-dimethyl-propyl)-4-hydroxy-phenyl]-2-oxo-ethoxy}-3-methoxy-benzaldehyde], the melting point is 106 to 107 °C.

`CC(C)=CCC/C(C)=C/COCC(=O)c1cc(C(C)C)c(O)c(C(C)C)c1` [Compound 108, 2-[(E)-3,7-dimethyl-octa-2,6-dienyloxy]-1-(4-hydroxy-3,5-di-isopropyl-phenyl)-ethanone] returned a melting point of 70 to 71 °C. Under `CC(C)=CCCC(C)CCOCC(=O)c1cc(C(C)C)c(O)c(C(C)C)c1` (centres unmarked) [Compound 109, 2-(3,7-dimethyl-oct-6-enyloxy]-1-(4-hydroxy-3,5-di-isopropyl-phenyl)-ethanone] stands 37 to 39 °C; under `CC(C)c1cc(C(=O)CO[C@@H]2C[C@H](C)CC[C@H]2C(C)C)cc(C(C)C)c1O` [Compound 110, 1-(4-hydroxy-3,5-di-isopropylphenyl)-2-[(1R,2S,5R)-2-isopropyl-5-methyl-cyclohexyloxy]-ethanone], 83 to 84 °C. Under `CCOCC(=O)c1cc(C(C)(C)C)c(O)c(C(C)(C)C)c1` [Compound 113, 2-ethoxy-1-(4-hydroxy-3,5-di-tert-butylphenyl)-ethanone] stands 73 to 75 °C; under `CCOC(C)C(=O)c1cc(C(C)(C)C)c(O)c(C(C)(C)C)c1` (centres unmarked) [Compound 115, 1-(3,5-di-tert-butyl-4-hydroxyphenyl)-2-ethoxy-propan-1-one], 64 °C; under `CC(C)=CCC/C(C)=C/COCC(=O)c1cc(C(C)(C)C)c(O)c(C(C)(C)C)c1` [Compound 116, 1-(3,5-di-tert-butyl-4-hydroxyphenyl)-2-[(E)-3,7-dimethyl-octa-2,6-dienyloxy]-ethanone], 50 °C. For `CC(C)c1cc(C(=O)CI)cc(C(C)C)c1O` [Compound 201, 1-(4-hydroxy-3,5-di-isopropylphenyl)-2-iodo-ethanone], the melting point was 127 to 128 °C. Under `CC(C)(C)c1cc(C(=O)CI)cc(C(C)(C)C)c1O` [Compound 202, 1-(4-hydroxy-3,5-di-tert-butylphenyl)-2-iodo-ethanone] stands 88 to 89 °C; under `O=C(CI)c1cc(C2CCCCC2)c(O)c(C2CCCCC2)c1` [Compound 203, 1-(4-hydroxy-3,5-di-cyclohexyphenyl)-2-iodo-ethanone], 183 to 185 °C. Under `CCC(C)(C)c1cc(C(=O)CI)cc(C(C)(C)CC)c1O` [Compound 204, 1-(3,5-bis(1,1-dimethylpropyl)-4-hydroxyphenyl)-2-iodo-ethanone] stands 76 to 77 °C; under `CC(I)C(=O)c1cc(C(C)(C)C)c(O)c(C(C)(C)C)c1` (centres unmarked) [Compound 205, 1-(4-hydroxy-3,5-tert-butylphenyl)-2-iodo-propane-1-one], 141 °C.
